In patent publication US4812590A, “Carbamates of 4-hydroxyanisole as prodrugs for chemotherapy of melanoma” (priority 1987, dated 1989):
Like-named read-outs stand apart in the source and are kept apart here.

Legend:
[1] = Determination of carbamate half-lives: conversion of carbamate to 4-methoxyphenol in phosphate buffer, HPLC; format: physicochemical
Procedure: […] The resulting solution was heated at 37° while 20 μL samples were removed at intervals and injected directly into the HPLC injection port.
Unreacted carbamate and 4-methoxyphenol concentrations were determined by HPLC analysis with a C-18 reverse phase column using a mobile phase of 87.5% pH 2.4 phosphoric acid and 12.5% acetonitrile. The UV detector was set at 220 nm. The half-life (t1/2) is the time required for 50% conversion of carbamate to 4-methoxyphenol. Compounds (1), (2) and (3) are the preferred prodrugs for the treatment of melanomas.

[2] = Partition coefficient, octanol/pH 7.4 buffer; format: physicochemical
pKa = format: physicochemical
melanoma = details: cited from earlier work
[3] = after intra-arterial injection; cited from earlier work
DNA synthesis = details: cited from earlier work
[4] = system: melanoma cells that contain tyrosinase; details: Riley 1985; cited from earlier work
[5] = pH 7.4, pH 7.4 phosphate buffer, 37° (Table I), read-out: t1/2 (time required for 50% conversion of carbamate to 4-methoxyphenol)
[6] = pH 6.8, pH 6.8, 37° (Table I), read-out: t1/2

With CNCCNC(=O)Oc1ccc(OC)cc1 [(7)] the half-life [1, 5] was 12.4 h.

Work on COc1ccc(OC(=O)NCCCN)cc1.Cl [(5), N-[3-Aminopropyl]carbamic acid 4-methoxyphenyl ester hydrochloride] yielded a half-life [1, 5] of 12 h.

Work on CCNCCN(CC)C(=O)Oc1ccc(OC)cc1 yielded a half-life [1, 5] of 2.38 h.

In the case of CNCCN(C)C(=O)Oc1ccc(OC)cc1 [Compound IV], the half-life ([1]; pH 7.4, phosphate buffer, pH 7.4 (37°), read-out: half-life of release of 4-hydroxyanisole) is reported as 0.6 h, the logD [2] is reported as -1.02 and the pKa (pKa) is reported as 8.88.

For CNCCCN(C)C(=O)Oc1ccc(OC)cc1, the half-life [1, 5] was 24.1 h.

For COc1ccc(OC(=O)N(C)CCN(C)C)cc1, the half-life [1, 6] was 3.23 h and the half-life [1, 5] was 0.9 h.

COc1ccc(OC(=O)N(C)CCN)cc1 showed a half-life [1, 5] of 7.7 h.

With CNCCN(C)C(=O)Oc1ccc(OC)cc1 [drawing 8] the half-life [1, 6] was 2.33 h and the half-life [1, 5] was 0.605 h.

For COc1ccc(O)cc1 [4-Hydroxyanisole, 4-hydroxyanisole], the “results of subsequent studies” value (melanoma; intra-arterial infusion) is given as “more promising results”, the “results of early clinical trials” value (melanoma; intralesional injection or i.v. infusion) is given as “disappointing” and the half-life in blood [3] is given as 9 min. For the same compound, the “effect on DNA synthesis” value (DNA synthesis) was “inhibits DNA synthesis” and the “oxidation by tyrosinase and toxicity to melanoma cells” value [4] was “oxidized by tyrosinase to highly cytotoxic products and consequently is preferentially toxic to those melanoma cells that contain the enzyme”.

COc1ccc(OC(=O)NCCN)cc1 [(6)] gave a half-life [1, 5] of 12.1 h.
